This is an account of results in ChEMBL document CHEMBL5291721, “A preclinical secondary pharmacology resource illuminates target-adverse drug reaction associations of marketed drugs” (Nat Commun, 2023).

Experiment [1] deals with T1, Muscarinic acetylcholine receptor M1 (Homo sapiens, UniProt P11229).
T1 sequence (P11229 whole entry): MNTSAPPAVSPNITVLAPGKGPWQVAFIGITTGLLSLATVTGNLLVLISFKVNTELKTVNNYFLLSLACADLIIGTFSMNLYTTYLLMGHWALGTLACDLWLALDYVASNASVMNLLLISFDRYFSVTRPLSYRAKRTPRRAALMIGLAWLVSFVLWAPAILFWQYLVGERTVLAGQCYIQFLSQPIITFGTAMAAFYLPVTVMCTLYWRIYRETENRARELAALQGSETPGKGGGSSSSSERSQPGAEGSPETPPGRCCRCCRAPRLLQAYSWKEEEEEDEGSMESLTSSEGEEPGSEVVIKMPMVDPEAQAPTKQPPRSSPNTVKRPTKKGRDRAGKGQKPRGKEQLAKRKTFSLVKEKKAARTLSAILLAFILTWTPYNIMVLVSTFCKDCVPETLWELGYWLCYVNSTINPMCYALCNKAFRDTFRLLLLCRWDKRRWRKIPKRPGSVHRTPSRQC
Format: functional, cell-based.

In experiment [2] the target is T2, Alpha-1A adrenergic receptor (Homo sapiens, UniProt P35348).
T2 sequence (P35348 whole entry): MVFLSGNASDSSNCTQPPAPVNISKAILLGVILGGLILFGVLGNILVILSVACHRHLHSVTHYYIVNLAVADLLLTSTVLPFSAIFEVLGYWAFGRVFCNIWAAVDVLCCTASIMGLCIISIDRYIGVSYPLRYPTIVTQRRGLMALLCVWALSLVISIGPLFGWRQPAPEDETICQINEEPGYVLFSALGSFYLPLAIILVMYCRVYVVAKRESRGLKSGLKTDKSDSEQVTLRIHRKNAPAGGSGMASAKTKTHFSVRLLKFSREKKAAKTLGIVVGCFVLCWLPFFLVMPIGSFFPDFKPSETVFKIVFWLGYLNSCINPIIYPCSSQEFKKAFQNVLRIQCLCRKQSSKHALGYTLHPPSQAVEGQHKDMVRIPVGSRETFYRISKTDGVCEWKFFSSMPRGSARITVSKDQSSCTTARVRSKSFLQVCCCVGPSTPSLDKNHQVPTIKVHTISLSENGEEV
Format: functional, cell-based.

The target of experiment [3] is 5-hydroxytryptamine receptor 2B (Homo sapiens, UniProt P41595). Format: functional, cell-based.
In experiment [4] the target is T3, Progesterone receptor (Homo sapiens, UniProt P06401).
T3 sequence (P06401 whole entry): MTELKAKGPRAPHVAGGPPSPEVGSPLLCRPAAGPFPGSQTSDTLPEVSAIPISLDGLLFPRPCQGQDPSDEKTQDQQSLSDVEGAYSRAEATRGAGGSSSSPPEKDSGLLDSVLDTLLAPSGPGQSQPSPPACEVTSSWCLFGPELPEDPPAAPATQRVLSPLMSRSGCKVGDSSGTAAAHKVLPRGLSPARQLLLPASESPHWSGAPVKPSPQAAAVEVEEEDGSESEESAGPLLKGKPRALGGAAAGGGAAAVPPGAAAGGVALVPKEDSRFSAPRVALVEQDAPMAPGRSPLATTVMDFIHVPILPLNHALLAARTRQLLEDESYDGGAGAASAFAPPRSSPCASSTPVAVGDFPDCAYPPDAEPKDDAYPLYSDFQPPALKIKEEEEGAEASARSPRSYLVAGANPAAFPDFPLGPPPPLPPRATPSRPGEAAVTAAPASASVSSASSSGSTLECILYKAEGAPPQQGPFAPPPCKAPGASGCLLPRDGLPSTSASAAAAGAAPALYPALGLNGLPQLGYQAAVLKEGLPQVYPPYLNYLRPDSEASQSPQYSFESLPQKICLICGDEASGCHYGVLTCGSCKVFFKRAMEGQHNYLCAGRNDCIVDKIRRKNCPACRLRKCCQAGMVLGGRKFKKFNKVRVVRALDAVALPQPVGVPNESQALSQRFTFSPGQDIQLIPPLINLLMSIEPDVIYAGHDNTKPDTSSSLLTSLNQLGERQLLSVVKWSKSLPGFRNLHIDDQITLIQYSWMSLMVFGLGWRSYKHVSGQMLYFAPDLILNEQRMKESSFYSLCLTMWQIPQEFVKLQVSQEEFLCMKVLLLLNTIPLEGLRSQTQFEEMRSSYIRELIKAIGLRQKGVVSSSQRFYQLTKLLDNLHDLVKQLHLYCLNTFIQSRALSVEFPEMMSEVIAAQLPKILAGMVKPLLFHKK
Format: functional.

Experiment [5] concerns the target T4, Beta-2 adrenergic receptor (Homo sapiens, UniProt P07550).
Experiment [6] has as its target Sodium-dependent dopamine transporter (Homo sapiens, UniProt Q01959).
Experiment [7] addresses T4, Beta-2 adrenergic receptor. Format: functional, cell-based.
Experiment [8] has as its target Muscarinic acetylcholine receptor M3 (Homo sapiens, UniProt P20309).
For experiment [9], the target named is T5, Muscarinic acetylcholine receptor M2 (Homo sapiens, UniProt P08172).
T5 sequence (P08172 whole entry): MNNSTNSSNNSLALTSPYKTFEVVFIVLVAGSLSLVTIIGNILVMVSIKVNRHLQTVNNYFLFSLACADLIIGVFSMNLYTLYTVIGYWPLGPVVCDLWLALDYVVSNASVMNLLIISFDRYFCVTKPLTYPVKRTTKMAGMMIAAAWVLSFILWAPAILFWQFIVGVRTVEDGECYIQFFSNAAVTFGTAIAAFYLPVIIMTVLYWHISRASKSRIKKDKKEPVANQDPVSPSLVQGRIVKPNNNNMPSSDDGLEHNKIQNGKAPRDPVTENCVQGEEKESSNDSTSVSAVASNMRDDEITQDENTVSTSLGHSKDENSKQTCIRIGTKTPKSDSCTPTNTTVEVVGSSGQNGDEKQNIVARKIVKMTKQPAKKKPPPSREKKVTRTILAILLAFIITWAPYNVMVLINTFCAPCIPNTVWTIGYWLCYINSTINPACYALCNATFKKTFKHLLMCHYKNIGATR
The experiment is classed as functional, cell-based.

Experiment [10] concerns the target T2, Alpha-1A adrenergic receptor. Format: functional, cell-based. The source holds these as a separate data set.
For experiment [11], the target named is T1, Muscarinic acetylcholine receptor M1. Format: functional.
Also: assay procedure not described here.

T4 sequence (P07550 whole entry): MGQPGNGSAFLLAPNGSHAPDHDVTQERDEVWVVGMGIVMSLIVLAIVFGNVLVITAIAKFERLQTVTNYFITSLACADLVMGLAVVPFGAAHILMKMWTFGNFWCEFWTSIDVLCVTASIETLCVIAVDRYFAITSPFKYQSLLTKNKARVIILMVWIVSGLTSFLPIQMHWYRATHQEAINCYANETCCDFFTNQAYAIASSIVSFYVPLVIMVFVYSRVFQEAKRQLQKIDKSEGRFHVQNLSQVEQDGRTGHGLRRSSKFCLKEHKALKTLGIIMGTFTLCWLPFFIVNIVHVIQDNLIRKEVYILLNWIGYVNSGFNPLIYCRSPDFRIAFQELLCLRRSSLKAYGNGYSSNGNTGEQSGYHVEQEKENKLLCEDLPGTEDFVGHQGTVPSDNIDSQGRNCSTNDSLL
Chain of Sodium-dependent dopamine transporter (Q01959 whole entry): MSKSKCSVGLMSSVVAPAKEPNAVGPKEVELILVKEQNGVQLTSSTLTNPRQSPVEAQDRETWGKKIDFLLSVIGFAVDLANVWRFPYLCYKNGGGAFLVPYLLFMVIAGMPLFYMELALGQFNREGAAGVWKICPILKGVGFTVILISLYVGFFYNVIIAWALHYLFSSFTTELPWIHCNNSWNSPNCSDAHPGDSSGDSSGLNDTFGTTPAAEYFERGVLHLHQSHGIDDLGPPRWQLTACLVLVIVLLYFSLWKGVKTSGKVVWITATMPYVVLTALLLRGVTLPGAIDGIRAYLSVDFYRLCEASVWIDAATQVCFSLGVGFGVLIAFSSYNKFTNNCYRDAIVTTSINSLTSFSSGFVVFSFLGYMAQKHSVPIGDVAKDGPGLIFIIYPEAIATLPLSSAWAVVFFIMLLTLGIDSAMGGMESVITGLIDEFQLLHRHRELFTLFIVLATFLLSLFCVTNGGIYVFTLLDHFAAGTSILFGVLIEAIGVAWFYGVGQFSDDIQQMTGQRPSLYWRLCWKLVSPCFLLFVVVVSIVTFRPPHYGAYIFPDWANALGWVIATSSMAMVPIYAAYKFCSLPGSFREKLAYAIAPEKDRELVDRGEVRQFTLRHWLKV
Chain of Muscarinic acetylcholine receptor M3 (P20309 whole entry): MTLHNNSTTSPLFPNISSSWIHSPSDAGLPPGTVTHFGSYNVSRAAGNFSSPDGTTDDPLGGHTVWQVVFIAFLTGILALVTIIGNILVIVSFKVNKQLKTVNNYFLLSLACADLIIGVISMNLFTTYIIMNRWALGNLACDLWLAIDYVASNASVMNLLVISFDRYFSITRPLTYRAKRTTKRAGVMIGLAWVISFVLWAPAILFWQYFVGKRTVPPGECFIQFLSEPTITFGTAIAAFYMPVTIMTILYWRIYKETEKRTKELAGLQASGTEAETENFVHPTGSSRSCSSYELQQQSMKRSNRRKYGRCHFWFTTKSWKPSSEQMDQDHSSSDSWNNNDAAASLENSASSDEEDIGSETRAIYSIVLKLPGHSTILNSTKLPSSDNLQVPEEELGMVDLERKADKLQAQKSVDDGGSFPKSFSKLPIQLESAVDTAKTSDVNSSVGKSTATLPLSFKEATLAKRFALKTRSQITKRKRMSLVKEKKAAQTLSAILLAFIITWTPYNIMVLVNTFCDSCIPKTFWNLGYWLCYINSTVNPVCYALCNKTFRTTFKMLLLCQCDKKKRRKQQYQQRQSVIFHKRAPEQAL
Chain of 5-hydroxytryptamine receptor 2B (P41595 whole entry): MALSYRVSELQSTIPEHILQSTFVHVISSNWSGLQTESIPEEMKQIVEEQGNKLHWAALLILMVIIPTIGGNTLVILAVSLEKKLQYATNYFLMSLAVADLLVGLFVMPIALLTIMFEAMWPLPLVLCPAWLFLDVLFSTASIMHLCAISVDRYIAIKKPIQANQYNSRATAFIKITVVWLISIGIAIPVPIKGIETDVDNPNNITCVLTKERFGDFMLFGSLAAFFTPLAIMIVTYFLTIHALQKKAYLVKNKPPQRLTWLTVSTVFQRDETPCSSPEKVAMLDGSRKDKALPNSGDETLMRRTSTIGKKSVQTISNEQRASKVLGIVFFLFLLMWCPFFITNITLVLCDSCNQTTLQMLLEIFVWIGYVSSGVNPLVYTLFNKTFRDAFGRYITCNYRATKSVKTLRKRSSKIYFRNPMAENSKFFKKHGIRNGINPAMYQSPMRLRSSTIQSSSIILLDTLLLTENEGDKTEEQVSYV

Turning to `OC[C@H]1NC[C@H](O)[C@@H](O)[C@H]1O`, the concentration at half-maximal activity (AC50) in [1], in experiment [2] and in [3] was greater than 30 µM each time.
Take `CC#CC(=O)N1CCC[C@H]1c1nc(-c2ccc(C(=O)Nc3ccccn3)cc2)c2c(N)nccn12` [ACALABRUTINIB]: the AC50 in experiment [1], in experiment [2] and in experiment [3] was greater than 30 µM in each case.
Take `C=CCOc1ccc(CC(=O)O)cc1Cl` [ALCLOFENAC]: the half-maximal activity concentration (AC50) in experiment [1], in experiment [2] and in experiment [3] was greater than 30 µM throughout.
Consider `CCN(CC)CCn1c(=O)c(Cc2ccc(OC)cc2)nc2ccccc21` [CAROVERINE], for which the AC50 in experiment [4], in experiment [5], in experiment [6], in experiment [7], in experiment [8] and in experiment [9] was greater than 30 µM each time. In addition, the AC50 in experiment [10] and in experiment [11] was greater than 30 µM in each case.
On to `NC(=O)C1(N2CCCCC2)CCN(CCCN2c3ccccc3CCc3ccccc32)CC1` [CARPIPRAMINE], for which the AC50 (usually the concentration at which the activity in the assay is half-maximal) in experiment [1] is 22 µM; in experiment [3], greater than 30 µM.
As to `CN1CCN(C(c2ccccc2)c2ccc(Cl)cc2)CC1` (stereo unspecified) [CHLORCYCLIZINE], the AC50 in experiment [1] is greater than 30 µM; in experiment [2], 4.86 µM; in experiment [3], greater than 30 µM.
In the case of `O=C(O)[C@H]1/C(=C/CO)O[C@@H]2CC(=O)N21` [CLAVULANIC ACID], the AC50 in [4], in [6], in experiment [7], in experiment [8], in experiment [9] and in experiment [10] was greater than 30 µM each time. Also, the AC50 in [11] was greater than 30 µM.
For the molecule `CC(C)/N=c1\cc2n(-c3ccc(Cl)cc3)c3ccccc3nc-2cc1Nc1ccc(Cl)cc1` [CLOFAZIMINE], the AC50 in experiment [4], in experiment [5], in experiment [6], in experiment [7], in experiment [8] and in experiment [9] was greater than 30 µM in each case. The AC50 in [10] was greater than 30 µM; in experiment [11], 13 µM.
As for `CCCCCCCCCCCCCCCC(=O)OC[C@H](COP(=O)([O-])OCC[N+](C)(C)C)OC(=O)CCCCCCCCCCCCCCC` [COLFOSCERIL PALMITATE], the AC50 in [1], in [2] and in experiment [3] was greater than 30 µM throughout.
For `CC(C)Nc1cccnc1N1CCN(C(=O)c2cc3cc(NS(C)(=O)=O)ccc3[nH]2)CC1` [DELAVIRDINE], the AC50 in experiment [1], in [2] and in [3] was greater than 30 µM each time.
With `C[C@@H](CN1CC(=O)NC(=O)C1)N1CC(=O)NC(=O)C1` [DEXRAZOXANE], the half-maximal activity concentration (AC50) in [1], in experiment [2] and in experiment [3] was greater than 30 µM each time.
For the molecule `C[C@H](Nc1ncnc2[nH]cnc12)c1cc2cccc(Cl)c2c(=O)n1-c1ccccc1` [DUVELISIB], the AC50 in experiment [4], in [6], in experiment [7], in experiment [8], in experiment [9] and in experiment [3] was greater than 30 µM each time. For the same molecule, the half-maximal activity concentration (AC50) in [10] and in [11] was greater than 30 µM each time.
As for `C[C@]12CC[C@@H]3c4ccc(OC(=O)N(CCCl)CCCl)cc4CC[C@H]3[C@@H]1CC[C@@H]2OP(=O)(O)O` [ESTRAMUSTINE PHOSPHATE], the AC50 in experiment [1], in experiment [2] and in experiment [3] was greater than 30 µM in each case.
In the case of `C[C@@H](O)[C@H]1C(=O)N2C(C(=O)O)=C(SCCN=CN)C[C@H]12` [IMIPENEM ANHYDROUS], the concentration at half-maximal activity (AC50) in [4], in experiment [6], in [7], in experiment [8], in experiment [9] and in experiment [10] was greater than 300 µM each time. In addition, half-maximal activity in experiment [11] (AC50) was put at 260 µM.
For the molecule `N[C@@H](Cc1cc(I)c(Oc2cc(I)c(O)c(I)c2)c(I)c1)C(=O)O` [LEVOTHYROXINE], the AC50 was 8.7 µM in experiment [4]; greater than 30 µM in experiment [6]; greater than 30 µM in experiment [7]; greater than 30 µM in [8]; greater than 30 µM in [9]; greater than 30 µM in experiment [10]. Also, the AC50 in [11] was greater than 30 µM.
In the case of `CO[C@@H]1[C@@H](OC(N)=O)[C@@H](O)[C@H](Oc2ccc3c(O)c(NC(=O)c4ccc(O)c(CC=C(C)C)c4)c(=O)oc3c2C)OC1(C)C` [NOVOBIOCIN], the AC50 in [4], in experiment [6], in [7], in experiment [8], in [9] and in [10] was greater than 30 µM each time. The molecule further gave an AC50 in [11] greater than 30 µM.
As for `COc1cc2c(cc1OC)C1CC(=O)C(CC(C)C)CN1CC2` (stereo unspecified) [TETRABENAZINE], the AC50 in [4], in [6], in experiment [7], in experiment [8], in experiment [9] and in [10] was greater than 30 µM throughout. In experiment [11], the AC50 is greater than 30 µM.
Consider `CC(C)(CO)c1cc2cc(NC(=O)C3(c4ccc5c(c4)OC(F)(F)O5)CC3)c(F)cc2n1C[C@@H](O)CO` [TEZACAFTOR], for which the AC50 in [4], in experiment [6], in experiment [7], in [8], in experiment [9] and in [10] was greater than 30 µM in each case. The half-maximal activity concentration (AC50) in experiment [11] is greater than 30 µM.
Regarding `c1cnc2cc3c(cc2n1)[C@@H]1CNC[C@H]3C1` [VARENICLINE], the AC50 in [4], in experiment [6], in experiment [7], in experiment [8], in experiment [9] and in experiment [10] was greater than 30 µM throughout. The molecule also gave a half-maximal activity concentration (AC50) in experiment [11] greater than 30 µM.
For the molecule `Nc1c2c(nc3ccccc13)CCCC2O` (stereo unspecified) [VELNACRINE], the AC50 in [4], in experiment [6], in experiment [7], in experiment [8], in experiment [9] and in experiment [10] was greater than 30 µM in each case. In experiment [11], this molecule came in with an AC50 greater than 30 µM.
